In patent publication US10889553B2, “Asymmetric triazole benzamide derivatives and the compositions and methods of treatment regarding the same” (NysnoBio Ireland DAC, priority 2017, dated 2021):
Read-outs that look alike come from different tables or passages of the source.

Assays:
HCT-116 (colon) = assay: Cancer cell proliferation assay (acid phosphatase); format: cell-based; details: Homo sapiens, HCT-116, 72 h, Table 6A; 72 hrs; read-out: HCT-116 IC50
Method: (§1) Measurement of the inhibitive effect of compounds on cancer cell proliferation was performed. Various cell lines were tested, including HCT-116 (colon); A549 (lung); TOV-21G (ovarian); Calu-6 (lung); and LS-174T (colon); and cell lines H1703 (Lung) and SKOV3 (ovarian); JEKO-1 (lymophoma); TOV-112D (ovarian) are tested. The assays were performed under the following conditions: Cells are harvested at a concentration of 4×10^4 cells/ml in media. Volumes of 100 μl/well of these cell suspensions were added to a 96 well plate using a multichannel pipette. Plates were gently agitated to ensure an even dispersion of cells over a given plate. Cells were then incubated at 37° C., 5% CO2 overnight. Following this, 100 μl of compound at varying concentrations was added to wells in triplicate. Control wells are those with 100 μl media containing 0.33% DMSO added to cell suspension (this is the equivalent volume of DMSO found in the highest concentration of drug). Plates were then gently agitated, as above, and incubated at 37° C., 5% CO2 for 72 hrs (control wells have reached 80-90% confluency). Assessment of cell proliferation in the presence of the compound was determined by the acid phosphatase assay.
(§2) Following the incubation period of 72 hrs, media was removed from the plates. Each well on the plate was washed twice with 100 μl PBS. This was then removed and 100 μl of freshly prepared phosphatase substrate (10 mM p-nitrophenol phosphate in 0.1M sodium acetate, 0.1% triton X-100, pH 5.5) was added to each well. The plates were then incubated in the dark at 37° C. for 2 hours. Colour development was monitored during this time. The enzymatic reaction was stopped by the addition of 50 μl of 1N NaOH. The plate was read in a dual beam plate reader at 405 nm with a reference wavelength of 620 nm. The absorbance reading of the latter is subtracted from the former, and the effect of the drug on cell proliferation was then measured as a percentage against the control cells (DMSO), which is taken as 0% inhibition.

TOV-21G (ovarian) = assay: Cancer cell proliferation assay (acid phosphatase); format: cell-based; details: Homo sapiens, TOV21G, 72 h, Table 6A, 72 hrs, read-out: TOV-21G IC50
Method: as §1, §2

A549 (lung) = assay: Cancer cell proliferation assay (acid phosphatase); format: cell-based; details: Homo sapiens, A549, 72 h, Table 6A; 72 hrs; read-out: A549 IC50
Method: as §1, §2

Parkin ligase = target: T1, Parkin ligase (Homo sapiens, UniProt O60260); assay: Activity-Based Probe Assay using Ubiquitin vinyl sulfone probe (TR-FRET); format: biochemical; details: heat activated Parkin, HA-Ub-VS probe, activation EC50; read-out: Probe Assay EC50 (μM) [Example 2]
T1 sequence (O60260 1-465): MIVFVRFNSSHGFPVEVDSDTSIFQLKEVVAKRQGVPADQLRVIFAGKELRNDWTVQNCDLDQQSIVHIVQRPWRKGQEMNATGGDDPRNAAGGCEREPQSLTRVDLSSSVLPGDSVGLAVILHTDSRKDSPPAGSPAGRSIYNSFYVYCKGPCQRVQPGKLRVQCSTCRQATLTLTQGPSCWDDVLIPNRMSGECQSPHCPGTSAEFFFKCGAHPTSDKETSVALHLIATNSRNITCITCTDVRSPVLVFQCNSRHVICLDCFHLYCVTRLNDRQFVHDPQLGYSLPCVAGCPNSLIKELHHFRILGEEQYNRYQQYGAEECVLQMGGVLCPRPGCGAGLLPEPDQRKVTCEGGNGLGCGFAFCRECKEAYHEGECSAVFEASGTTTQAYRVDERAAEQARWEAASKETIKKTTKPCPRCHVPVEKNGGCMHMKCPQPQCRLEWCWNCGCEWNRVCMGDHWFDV
Method in brief: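 Heat-activated His-Parkin (5 min, 58 °C; 40 nM) was preincubated 15 min with compound, then reacted 60 min at 22 °C with 70 nM HA-Ub-VS in 50 mM HEPES pH 8.5, 150 mM NaCl, 0.01% Tween 20, 0.1% BSA. Probe labelling was read by anti-His-Eu/anti-HA-XL665 TR-FRET (665/615 ratio). % activation was normalized to DMSO and 100 nM control activator, then fitted with a four-parameter curve (Bottom=0, Top=100).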

LS-174T (colon) = assay: Cancer cell proliferation assay (acid phosphatase); format: cell-based; details: Homo sapiens, LS174T; Table 6A; 72 hrs
Method: as §1, §2

Structure (SMILES) | IC50 (HCT-116 (colon)) [nM] | IC50 (TOV-21G (ovarian); heading: TOV-21G IC50) [nM] | IC50 (A549 (lung)) [nM] | EC50 (Parkin ligase) [µM] | IC50 (TOV-21G (ovarian)) [nM] | IC50 (LS-174T (colon)) [nM]
Cc1ccccc1C(=O)Nc1nc(NC(=O)c2ccccc2C)n(-c2ccc(N3CCN(C(=O)OC(C)(C)C)CC3)cc2)n1 [Compound 59] | 801000 | 938 | 810000 | 3 | – | –
Cc1ccccc1C(=O)Nc1nc(NC(=O)c2ccccc2C)n(-c2ccc(N3CCC3)cc2)n1 [Compound 64] | 2300 | – | 2400 | 8 | 2400 | 2600
Cc1ccccc1C(=O)Nc1nc(NC(=O)c2ccno2)n(-c2ccc(OC(F)(F)F)cc2)n1 [Compound 71] | 2500 | – | 2400 | 3 | – | –
Cc1ccccc1C(=O)Nc1nc(NC(=O)c2ccno2)n(-c2cccc(F)c2)n1 [Compound 73] | 2500 | – | 2500 | 12 | – | –
Cc1ccccc1C(=O)Nc1nc(NC(=O)c2ccno2)n(-c2ccc(C(F)(F)F)cc2)n1 [Compound 75] | 2400 | – | 2500 | 4 | – | 1000
Cc1ccccc1C(=O)Nc1nc(NCc2ccccc2)nn1-c1ccc(Cl)cc1 [Compound 108] | > 2500 | – | > 2500 | 1.5 | > 2500 | –
Cc1ccccc1C(=O)Nc1nc(NCc2ccccc2Cl)nn1-c1ccc(OC(F)(F)F)cc1 [Compound 116] | > 2500 | – | > 2500 | 2 | > 2500 | –
Cc1cccc(-c2nc(NC(=O)c3ccccc3C)n(-c3ccc(OC(F)(F)F)cc3)n2)n1 [Compound 126] | 1700 | – | 1400 | 2 | 1900 | 1000
Cc1cccc(-c2nc(NC(=O)c3ccccc3C)n(-c3ccc(Cl)cc3)n2)n1 [Compound 127] | 1700 | – | 1100 | 2 | 2100 | 1600
Cc1ccccc1C(=O)Nc1nc(-c2cccc(F)n2)nn1-c1cccc(F)c1 [Compound 128] | 2500 | – | 2500 | 5 | 2400 | –
Cc1ccccc1C(=O)Nc1nc(-c2cccc(F)n2)nn1-c1ccc(OC(F)(F)F)cc1 [Compound 129] | 2400 | – | 2500 | 3 | 2000 | –
